Among the data in the supplement of paper PMC10307832 are relative viability values, retold here.

Test in all cases: relative viability (nuclei count vs DMSO), 5 days (fraction); higher = more cells survive
Compound in one experiment: CC1=NC=CC(=C1)C2=CC=C(C=C2)CC(=O)NC3=CC=C(C=C3)C4=CN=CC=C4 [Wnt-C59]
In outline: (§1)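 After an overnight hold at 37 °C, lung cancer cell lines in 1536-well plates were pinned with five library-drug doses (not always all listed), each √10 from the next, on vehicle-anchored plates. The cells stayed 5 days without fresh medium, then a one-step fix, permeabilisation and Hoechst stain preceded 4× imaging and MetaXpress nuclear counts. A plate passed only with control CV under 25% and at least one doubling. Viability is the median, over plates, of treated-well nuclei relative to vehicle-well nuclei.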

Compound in the next experiment: CS(=O)(=O)CCNCc1ccc(-c2ccc3ncnc(Nc4ccc(OCc5cccc(F)c5)c(Cl)c4)c3c2)o1 [Lapatinib]
In outline:
as §1

Compound in the experiment “Wnt-C59 + Navitoclax”: CC1=NC=CC(=C1)C2=CC=C(C=C2)CC(=O)NC3=CC=C(C=C3)C4=CN=CC=C4 [Wnt-C59] + CC1(C)CCC(c2ccc(Cl)cc2)=C(CN2CCN(c3ccc(C(=O)NS(=O)(=O)c4ccc(N[C@H](CCN5CCOCC5)CSc5ccccc5)c(S(=O)(=O)C(F)(F)F)c4)cc3)CC2)C1 [Navitoclax] (partner 0.5 µM)
In outline: (§2)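 Lung cancer cell lines, seeded in 1536-well plates, were treated the following day by pin tool with a single drug or with five library-drug doses (not always all listed) in √10 steps on top of a fixed anchor-drug dose. Cells were fixed and nuclei stained in one step after 5 days, and nuclei were counted. Relative viability is the nuclei count for treated wells divided by that for vehicle wells, reported as medians of duplicate plates.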

Compound in the experiment “Wnt-C59 + Decitabine”: CC1=NC=CC(=C1)C2=CC=C(C=C2)CC(=O)NC3=CC=C(C=C3)C4=CN=CC=C4 [Wnt-C59] + Nc1ncn([C@H]2C[C@H](O)[C@@H](CO)O2)c(=O)n1 [Decitabine] (partner 2 µM)
In outline:
as §2

For the cell line LU99A, the relative viability is 0.946 with Wnt-C59 (0.001 µM); 0.923 with Wnt-C59 (0.01 µM); 1.09 with Wnt-C59 (0.03162 µM); 0.936 with Wnt-C59 (0.1 µM); 0.883 with Lapatinib (0.02 µM); 0.757 with Lapatinib (0.06325 µM). Moreover, the relative viability in the experiment with Lapatinib (0.2 µM) is 0.852; with Lapatinib (0.6325 µM), 0.871; in the experiment with Lapatinib (2 µM) it was 0.897; with Lapatinib (2 µM, anchor plate), 1.03; in the experiment with Wnt-C59 + Navitoclax (first compound 0.001 µM), 0.779; with Wnt-C59 + Navitoclax (first compound 0.01 µM) it was 0.933. Besides, the relative viability with Wnt-C59 + Navitoclax (first compound 0.03162 µM) came to 0.822; in the experiment with Wnt-C59 + Navitoclax (first compound 0.1 µM), 0.772; with Wnt-C59 + Decitabine (first compound 0.001 µM) it was 0.943; in the experiment with Wnt-C59 + Decitabine (first compound 0.01 µM) it was 0.937; with Wnt-C59 + Decitabine (first compound 0.03162 µM) it was 0.897; in the experiment with Wnt-C59 + Decitabine (first compound 0.1 µM), 0.878.
Regarding NCI-H460, the relative viability amounted to 0.973 with Wnt-C59 (0.001 µM); 0.95 with Wnt-C59 (0.01 µM); 1.02 in the experiment with Wnt-C59 (0.03162 µM); 0.957 in the experiment with Wnt-C59 (0.1 µM); 0.952 with Lapatinib (0.02 µM); 0.984 in the experiment with Lapatinib (0.06325 µM). Moreover, the relative viability with Lapatinib (0.2 µM) came to 0.969; in the experiment with Lapatinib (0.6325 µM) it was 0.969; with Lapatinib (2 µM) it was 0.868; with Lapatinib (2 µM, anchor plate), 0.988; with Wnt-C59 + Navitoclax (first compound 0.001 µM), 0.968; with Wnt-C59 + Navitoclax (first compound 0.01 µM) it was 1.18. The relative viability with Wnt-C59 + Navitoclax (first compound 0.03162 µM) was 1.11; with Wnt-C59 + Navitoclax (first compound 0.1 µM), 1.04; with Wnt-C59 + Decitabine (first compound 0.001 µM), 0.503; with Wnt-C59 + Decitabine (first compound 0.01 µM), 0.488; in the experiment with Wnt-C59 + Decitabine (first compound 0.03162 µM) it was 0.594; with Wnt-C59 + Decitabine (first compound 0.1 µM), 0.465.
Regarding RERF-LC-KJ, the relative viability with Wnt-C59 (0.001 µM) was determined as 1; with Wnt-C59 (0.01 µM), 0.978; with Wnt-C59 (0.03162 µM), 1.09; with Wnt-C59 (0.1 µM) it was 0.987; in the experiment with Lapatinib (0.02 µM), 0.992; with Lapatinib (0.06325 µM), 0.88. The relative viability with Lapatinib (0.2 µM) is 0.905; with Lapatinib (0.6325 µM), 0.826; with Lapatinib (2 µM), 0.737; with Lapatinib (2 µM, anchor plate), 0.861; with Wnt-C59 + Navitoclax (first compound 0.001 µM), 0.899; with Wnt-C59 + Navitoclax (first compound 0.01 µM), 0.908. In addition, the relative viability with Wnt-C59 + Navitoclax (first compound 0.03162 µM) was found to be 1.01; in the experiment with Wnt-C59 + Navitoclax (first compound 0.1 µM), 1.31; with Wnt-C59 + Decitabine (first compound 0.001 µM), 0.711; with Wnt-C59 + Decitabine (first compound 0.01 µM), 0.727; with Wnt-C59 + Decitabine (first compound 0.03162 µM) it was 0.742; in the experiment with Wnt-C59 + Decitabine (first compound 0.1 µM), 0.735.
For the cell line NCI-H2087, the relative viability with Wnt-C59 (0.001 µM) came out at 1.07; with Wnt-C59 (0.01 µM) it was 0.922; with Wnt-C59 (0.03162 µM) it was 0.971; with Wnt-C59 (0.1 µM) it was 1.01; in the experiment with Lapatinib (0.02 µM), 0.786; with Lapatinib (0.06325 µM), 0.833. For the same cell line, the relative viability in the experiment with Lapatinib (0.2 µM) worked out at 1.12; with Lapatinib (0.6325 µM), 0.952; with Lapatinib (2 µM), 0.975; in the experiment with Lapatinib (2 µM, anchor plate), 0.983; with Wnt-C59 + Navitoclax (first compound 0.001 µM), 1.03; with Wnt-C59 + Navitoclax (first compound 0.01 µM) it was 0.981. Further, the relative viability with Wnt-C59 + Navitoclax (first compound 0.03162 µM) is 1.01; with Wnt-C59 + Navitoclax (first compound 0.1 µM) it was 0.93; with Wnt-C59 + Decitabine (first compound 0.001 µM), 0.245; in the experiment with Wnt-C59 + Decitabine (first compound 0.01 µM), 0.28; with Wnt-C59 + Decitabine (first compound 0.03162 µM), 0.281; with Wnt-C59 + Decitabine (first compound 0.1 µM), 0.336.
As for COR-L23, the relative viability with Wnt-C59 (0.001 µM) was determined as 0.961; with Wnt-C59 (0.01 µM), 1.01; with Wnt-C59 (0.03162 µM), 1.07; with Wnt-C59 (0.1 µM) it was 0.963; with Lapatinib (0.02 µM) it was 0.978; with Lapatinib (0.06325 µM) it was 1. The relative viability in the experiment with Lapatinib (0.2 µM) is 1.11; with Lapatinib (0.6325 µM) it was 0.919; with Lapatinib (2 µM), 1.02; with Lapatinib (2 µM, anchor plate) it was 0.934; in the experiment with Wnt-C59 + Navitoclax (first compound 0.001 µM) it was 1.13; with Wnt-C59 + Navitoclax (first compound 0.01 µM), 1.02. For the same cell line, the relative viability stood at 1.17 with Wnt-C59 + Navitoclax (first compound 0.03162 µM); 0.944 with Wnt-C59 + Navitoclax (first compound 0.1 µM); 0.489 with Wnt-C59 + Decitabine (first compound 0.001 µM); 0.47 with Wnt-C59 + Decitabine (first compound 0.01 µM); 0.493 in the experiment with Wnt-C59 + Decitabine (first compound 0.03162 µM); 0.525 with Wnt-C59 + Decitabine (first compound 0.1 µM).
NCI-H2009: the relative viability stood at 0.997 in the experiment with Wnt-C59 (0.001 µM); 0.999 with Wnt-C59 (0.01 µM); 1 in the experiment with Wnt-C59 (0.03162 µM); 0.992 in the experiment with Wnt-C59 (0.1 µM); 1.01 with Lapatinib (0.02 µM); 0.978 with Lapatinib (0.06325 µM). Besides, the relative viability worked out at 1.02 with Lapatinib (0.2 µM); 1.01 in the experiment with Lapatinib (0.6325 µM); 1 with Lapatinib (2 µM); 0.84 in the experiment with Lapatinib (2 µM, anchor plate); 1.13 with Wnt-C59 + Navitoclax (first compound 0.001 µM); 1.23 with Wnt-C59 + Navitoclax (first compound 0.01 µM). Besides, the relative viability with Wnt-C59 + Navitoclax (first compound 0.03162 µM) came to 1.14; with Wnt-C59 + Navitoclax (first compound 0.1 µM), 1.14; with Wnt-C59 + Decitabine (first compound 0.001 µM), 0.35; with Wnt-C59 + Decitabine (first compound 0.01 µM) it was 0.442; with Wnt-C59 + Decitabine (first compound 0.03162 µM) it was 0.352; in the experiment with Wnt-C59 + Decitabine (first compound 0.1 µM) it was 0.379.
For the cell line NCI-H1944, the relative viability amounted to 0.956 with Wnt-C59 (0.001 µM); 0.945 in the experiment with Wnt-C59 (0.01 µM); 1.07 in the experiment with Wnt-C59 (0.03162 µM); 1.01 with Wnt-C59 (0.1 µM); 0.781 with Lapatinib (0.02 µM); 0.658 with Lapatinib (0.06325 µM). In addition, the relative viability was 0.964 with Lapatinib (0.2 µM); 0.853 with Lapatinib (0.6325 µM); 0.757 in the experiment with Lapatinib (2 µM); 0.846 in the experiment with Lapatinib (2 µM, anchor plate); 1.06 with Wnt-C59 + Navitoclax (first compound 0.001 µM); 0.96 in the experiment with Wnt-C59 + Navitoclax (first compound 0.01 µM). Besides, the relative viability was found to be 1.07 with Wnt-C59 + Navitoclax (first compound 0.03162 µM); 0.964 with Wnt-C59 + Navitoclax (first compound 0.1 µM); 0.501 with Wnt-C59 + Decitabine (first compound 0.001 µM); 0.459 in the experiment with Wnt-C59 + Decitabine (first compound 0.01 µM); 0.51 with Wnt-C59 + Decitabine (first compound 0.03162 µM); 0.43 in the experiment with Wnt-C59 + Decitabine (first compound 0.1 µM).
For A549, the relative viability worked out at 0.966 with Wnt-C59 (0.001 µM); 0.978 in the experiment with Wnt-C59 (0.01 µM); 1.01 in the experiment with Wnt-C59 (0.03162 µM); 0.893 with Wnt-C59 (0.1 µM); 0.982 with Lapatinib (0.02 µM); 0.875 in the experiment with Lapatinib (0.06325 µM). For the same cell line, the relative viability with Lapatinib (0.2 µM) amounted to 0.867; in the experiment with Lapatinib (0.6325 µM), 0.957; with Lapatinib (2 µM), 0.861; with Lapatinib (2 µM, anchor plate) it was 0.993; with Wnt-C59 + Navitoclax (first compound 0.001 µM) it was 1.23; with Wnt-C59 + Navitoclax (first compound 0.01 µM), 1.31. In addition, the relative viability with Wnt-C59 + Navitoclax (first compound 0.03162 µM) amounted to 1.29; with Wnt-C59 + Navitoclax (first compound 0.1 µM) it was 1.12; in the experiment with Wnt-C59 + Decitabine (first compound 0.001 µM), 0.222; in the experiment with Wnt-C59 + Decitabine (first compound 0.01 µM) it was 0.247; in the experiment with Wnt-C59 + Decitabine (first compound 0.03162 µM) it was 0.247; with Wnt-C59 + Decitabine (first compound 0.1 µM), 0.225.
